Data published in the NIST ThermoML archive (doi:10.1021/je0497496).
Several values for one entry are separate records, joined by “and”; a condition that tells them apart may be missing. Identical values can stand only once.

Settings: for vapor or sublimation pressure: Closed cell (Static) method; for mass density: buoyancy

FCC(F)(F)F [1,1,1,2-tetrafluoroethane]
Liquid
Settings	mass density	vapor or sublimation pressure
253.13 K	1358.69 kg/m3 and 1358.7 kg/m3	133.58 kPa and 133.6 kPa
262.99 K	1327.33 kg/m3	200.47 kPa
263 K	1327.31 kg/m3	200.48 kPa
273.31 K	1293.96 kg/m3	295.5 kPa
283.16 K	1260.66 kg/m3	415.71 kPa
283.17 K	1260.67 kg/m3	415.71 kPa
293.22 K	1225.34 kg/m3 and 1225.33 kg/m3	571.94 kPa and 571.98 kPa
303.25 K	1187.23 kg/m3	771.67 kPa
303.26 K	1187.22 kg/m3	771.76 kPa
313.18 K	1146.44 kg/m3	1018.1 kPa
323.19 K	1102.35 kg/m3	1319.8 kPa
323.2 K	1102.34 kg/m3	1319.9 kPa
333.16 K	1052.61 kg/m3	1683 kPa
333.17 K	1052.6 kg/m3	1683.2 kPa
343.03 K	997.103 kg/m3	2110.6 kPa
343.04 K	997.091 kg/m3	2110.9 kPa
353.16 K	928.313 kg/m3 and 928.306 kg/m3	2633.6 kPa and 2633.7 kPa
363.17 K	837.765 kg/m3	3245.3 kPa
363.18 K	837.734 kg/m3	3245.5 kPa

Fluid (supercritical or subcritical phases)
Settings	mass density
262.98 K, 30.04 kPa	1.41703 kg/m3
262.99 K, 30.02 kPa	1.41553 kg/m3 and 1.41816 kg/m3
262.99 K, 50.03 kPa	2.37378 kg/m3
262.99 K, 80.08 kPa	3.83561 kg/m3
262.99 K, 100.09 kPa	4.82696 kg/m3
262.99 K, 150.06 kPa	7.37304 kg/m3
273.31 K, 50 kPa	2.27757 kg/m3 and 2.2813 kg/m3
273.31 K, 100.01 kPa	4.6218 kg/m3
273.31 K, 150.01 kPa	7.03559 kg/m3
273.31 K, 200 kPa	9.53172 kg/m3
273.32 K, 250 kPa	12.1179 kg/m3
283.16 K, 100.09 kPa	4.4428 kg/m3
283.16 K, 200.02 kPa	9.12611 kg/m3
283.16 K, 300.08 kPa	14.1052 kg/m3
283.17 K, 100.1 kPa	4.44579 kg/m3
283.17 K, 350.92 kPa	16.7525 kg/m3
293.21 K, 399.98 kPa	18.4354 kg/m3
293.21 K, 500.02 kPa	23.7422 kg/m3
293.22 K, 100.05 kPa	4.27783 kg/m3 and 4.27519 kg/m3
293.22 K, 200.05 kPa	8.76202 kg/m3 and 8.75976 kg/m3
293.22 K, 300.02 kPa	13.4608 kg/m3
303.25 K, 100.02 kPa	4.1211 kg/m3 and 4.12406 kg/m3
303.26 K, 299.99 kPa	12.8979 kg/m3
303.26 K, 499.91 kPa	22.542 kg/m3
303.26 K, 711.4 kPa	34.0053 kg/m3
313.17 K, 100.02 kPa	3.98495 kg/m3 and 3.98345 kg/m3
313.17 K, 200.04 kPa	8.11408 kg/m3
313.17 K, 600.21 kPa	26.4214 kg/m3
313.17 K, 902.11 kPa	42.8957 kg/m3
313.18 K, 400.01 kPa	16.8674 kg/m3
313.18 K, 800.41 kPa	37.0004 kg/m3
323.19 K, 100.02 kPa	3.85767 kg/m3 and 3.85694 kg/m3
323.19 K, 500 kPa	20.6111 kg/m3
323.19 K, 940.01 kPa	42.4962 kg/m3
323.19 K, 1271.1 kPa	62.9174 kg/m3
323.2 K, 300 kPa	11.9392 kg/m3
323.2 K, 802.37 kPa	35.149 kg/m3
333.16 K, 101.53 kPa	3.7964 kg/m3
333.16 K, 303.79 kPa	11.6786 kg/m3
333.16 K, 1500 kPa	73.4336 kg/m3
333.17 K, 101.53 kPa	3.79264 kg/m3
333.17 K, 502.7 kPa	19.9182 kg/m3
333.17 K, 801.13 kPa	33.4094 kg/m3
333.17 K, 1009.4 kPa	43.8443 kg/m3
333.17 K, 1300.4 kPa	60.3214 kg/m3
343.03 K, 136.28 kPa	4.96602 kg/m3
343.03 K, 1500 kPa	68.2379 kg/m3
343.03 K, 1704.5 kPa	81.5238 kg/m3
343.04 K, 136.71 kPa	4.97127 kg/m3
343.04 K, 303.78 kPa	11.2865 kg/m3
343.04 K, 520.7 kPa	19.9261 kg/m3
343.04 K, 849.11 kPa	34.1538 kg/m3
343.04 K, 1093.8 kPa	45.8644 kg/m3
343.04 K, 1300.4 kPa	56.7069 kg/m3
343.04 K, 1900.2 kPa	96.118 kg/m3
353.16 K, 136.72 kPa	4.81465 kg/m3
353.16 K, 500.97 kPa	18.447 kg/m3
353.16 K, 2000.3 kPa	94.8889 kg/m3
353.16 K, 2200.5 kPa	110.087 kg/m3
353.17 K, 1000.4 kPa	39.3925 kg/m3
353.17 K, 1508.8 kPa	64.532 kg/m3
353.17 K, 2408.1 kPa	128.821 kg/m3
363.17 K, 153.67 kPa	5.26494 kg/m3
363.17 K, 500.5 kPa	17.8052 kg/m3
363.17 K, 1001.1 kPa	37.7848 kg/m3
363.17 K, 3101.3 kPa	188.758 kg/m3
363.18 K, 1500.8 kPa	60.7126 kg/m3
363.18 K, 2003.2 kPa	88.1709 kg/m3
363.18 K, 2500.4 kPa	122.731 kg/m3
363.18 K, 2800.4 kPa	150.158 kg/m3
363.18 K, 3002.1 kPa	174.085 kg/m3
